Series [1] concerns Homo sapiens. Description: Toxicity in chronic hepatitis B virus infected patient assessed as serum ALT level at 30 mg, po qd for 4 weeks by LC-MS analysis. The series is classed as organism-based. To be noted: in vivo, 672 h.
For series [2], the system named is Hepatitis B virus. Description: Antiviral activity against hepatitis B virus infected in human assessed as log reduction in viral titer per ml of serum at 240 mg, po qd for 4 weeks. Format: functional.
For series [3], the system named is Hepatitis B virus. Nature of the series: Antiviral activity against hepatitis B virus infected in human assessed as log reduction in viral titer per ml of serum at 30 mg, po qd for 4 weeks. Format: functional.
In series [4] the test system is Homo sapiens. Nature of the series: Toxicity in chronic hepatitis B virus infected patient assessed as serum ALT level at 120 mg, po qd for 4 weeks by LC-MS analysis. Format: organism-based. Conditions: in vivo, 672 h.
Series [5] has as its system Homo sapiens. Description: Toxicity in chronic hepatitis B virus infected patient assessed as serum ALT level at 60 mg, po qd for 4 weeks by LC-MS analysis. Format: organism-based. Conditions: in vivo, 672 h.
Series [6] has as its system Homo sapiens. Nature of the series: Toxicity in chronic hepatitis B virus infected patient assessed as serum ALT level at 240 mg, po qd for 4 weeks by LC-MS analysis. The series is classed as organism-based. To be noted: in vivo, 672 h.

For the compound `CC(C)(C)C(=O)OCOP(=O)(COC1(Cn2cnc3cnc(N)nc32)CC1)OCOC(=O)C(C)(C)C` [LB80380], the Activity with Homo sapiens [1] worked out at 79.5 U/L; in the series with Homo sapiens [4], 34.5 U/L; in the series with Homo sapiens [5], 68.7 U/L; with Homo sapiens [6], 27 U/L. Further, the FC in the series with Hepatitis B virus [2] is 3.8; in the series on Hepatitis B virus [3], 3.02.

Source of the values: ChEMBL document CHEMBL1649179, “Pharmacokinetics of LB80331 and LB80317 following oral administration of LB80380, a new antiviral agent for chronic hepatitis B (CHB), in healthy adult subjects, CHB patients, and mice” (Antimicrob Agents Chemother, 2009).
